Data reported in ChEMBL document CHEMBL4414581, “Cytotoxic Limonoids from the Twigs and Leaves of Toona ciliata” (J Nat Prod, 2019).
pIC50: −log10 of the molar value.

Tests used:
HL-60 = assay: Cytotoxicity against human HL60 cells assessed as reduction in cell viability measured after 48 hrs by MTS assay; assay type: functional, cell-based; conditions: HL-60, 48 h
MCF7 = assay: Cytotoxicity against human MCF7 cells assessed as reduction in cell viability measured after 48 hrs by MTS assay; assay type: functional, cell-based; conditions: MCF7, 48 h
SW480 = assay: Cytotoxicity against human SW480 cells assessed as reduction in cell viability measured after 48 hrs by MTS assay; assay type: functional, cell-based; conditions: SW480, 48 h
[1] = Cytotoxicity against human […] cells assessed as reduction in cell viability measured after 48 hrs by MTS assay; assay type: functional, cell-based
A549 = assay: Cytotoxicity against human A549 cells assessed as reduction in cell viability measured after 48 hrs by MTS assay; assay type: functional, cell-based; conditions: A549, 48 h
RAW264.7 = assay: Anti-inflammatory activity in mouse RAW264.7 cells assessed as inhibition of LPS-induced nitric oxide production measured after 18 hrs by Griess assay; assay type: functional, cell-based; conditions: RAW264.7, 18 h
[2] = Cytotoxicity against mouse RAW264.7 cells assessed as cell viability measured after 48 hrs by MTS assay relative to control; assay type: cell-based; conditions: read-out: Activity

Row | SMILES | pIC50 (HL-60) | pIC50 (MCF7) | pIC50 (SW480) | pIC50 [1] | pIC50 (A549) | pIC50 (RAW264.7) | viability at 48 h [2] [%]
1 | C[C@]12[C@H](C[C@H](O)[C@]3(C)OC(=O)[C@H](O)[C@]13O)O[C@@H]1C[C@@]3(C)[C@H](c4ccoc4)C[C@H]4O[C@]43[C@](C)(O)[C@H]12 | < 5.00 | < 5.00 | < 5.00 | < 5.00 | < 5.00 | – | –
2 | CC1(C)OC(=O)C=C[C@]2(C)[C@H]3CC[C@]4(C)[C@@H](C(=O)C[C@H]4c4ccoc4)[C@]3(C)[C@H](O)C[C@@H]12 | < 5.00 | < 5.00 | < 5.00 | < 5.00 | < 5.00 | – | –
3 | CC(=O)O[C@H]1[C@H]2O[C@H]3C[C@@H](O)[C@]4(C)OC(=O)[C@H](O)[C@]4(O)[C@@]3(C)[C@@H]2[C@@](C)(O)[C@@]23O[C@@H]2C[C@@H](c2ccoc2)[C@]13C | 5.80 | 5.43 | 5.40 | < 5.00 | < 5.00 | – | –
4 | CC(=O)O[C@H]1C(=O)O[C@@]2(C)[C@H](OC(C)=O)C[C@@H]3O[C@@H]4C[C@@]5(C)[C@H](c6ccoc6)C[C@H]6O[C@]65[C@](C)(O)[C@H]4[C@]3(C)[C@@]12O | < 5.00 | 5.68 | 5.64 | < 5.00 | < 5.00 | – | –
5 | CC(=O)O[C@@H]1C[C@]2(C)[C@@H](C(=O)C[C@H]2c2ccoc2)[C@]2(C)[C@H](O)C[C@H]3C(C)(C)OC(=O)C=C[C@]3(C)[C@@H]12 | < 5.00 | < 5.00 | < 5.00 | < 5.00 | < 5.00 | – | –
6 | C[C@]12[C@H](CC(=O)[C@]3(C)OC(=O)[C@H](O)[C@]13O)O[C@H]1[C@H]2[C@@](C)(O)[C@@]23O[C@@H]2C[C@@H](c2ccoc2)[C@]3(C)[C@H]1O | 6.05 | 5.52 | 5.60 | < 5.00 | < 5.00 | – | –
7 | C[C@]12[C@H]3[C@@H](C[C@@]4(C)[C@H](C5=CCNC5=O)C[C@H]5O[C@]54[C@]3(C)O)O[C@@]1(O)C=C[C@]1(C)OC(=O)[C@H](O)[C@]21O | < 5.00 | < 5.00 | < 5.00 | < 5.00 | < 5.00 | – | –
8 | C[C@]12[C@H](CC(=O)[C@]3(C)OC(=O)[C@H](O)[C@]13O)O[C@@H]1C[C@@]3(C)[C@H](c4ccoc4)C[C@H]4O[C@]43[C@](C)(O)[C@H]12 | 6.10 | 5.40 | 5.64 | < 5.00 | < 5.00 | – | –
9 | C[C@]12[C@H](C[C@H](O)[C@]3(C)OC(=O)[C@H](O)[C@]13O)O[C@H]1[C@H]2[C@@](C)(O)[C@@]23O[C@@H]2C[C@@H](c2ccoc2)[C@]3(C)[C@H]1O | < 5.00 | < 5.00 | < 5.00 | < 5.00 | < 5.00 | – | –
10 | C[C@]12[C@H](c3ccoc3)C[C@H]3O[C@]31[C@](C)(O)[C@@H]1[C@H](O[C@@]3(O)C=C[C@]4(C)OC(=O)[C@H](O)[C@]4(O)[C@@]13C)[C@@H]2O | < 5.00 | < 5.00 | < 5.00 | < 5.00 | < 5.00 | – | –
11 | CO[C@@H]1C=C([C@@H]2C[C@H]3O[C@@]34[C@@]2(C)CC[C@@H]2[C@@]3(C)C=CC(=O)OC(C)(C)[C@@H]3CC(=O)O[C@]24C)C(=O)O1 | < 5.00 | < 5.00 | < 5.00 | < 5.00 | < 5.00 | – | –
12 | CO[C@]12C=C[C@]3(C)OC(=O)[C@H](O)[C@]3(O)[C@@]1(C)[C@H]1[C@@H](C[C@@]3(C)[C@H](c4ccoc4)C[C@H]4O[C@]43[C@]1(C)O)O2 | < 5.00 | < 5.00 | < 5.00 | < 5.00 | < 5.00 | – | –
13 | C[C@]12[C@H]3[C@@H](C[C@@]4(C)[C@H](c5ccoc5)C[C@H]5O[C@]54[C@]3(C)O)O[C@@]1(O)C=C[C@]1(C)OC(=O)[C@H](O)[C@]21O | 5.64 | 5.68 | 5.82 | < 5.00 | < 5.00 | – | –
14 | CC1(C)OC(=O)C=C[C@]2(C)[C@H]3[C@H](O)C[C@@]4(C)[C@H](c5ccoc5)C[C@H]5O[C@]54[C@]3(C)C(=O)C[C@@H]12 | < 5.00 | < 5.00 | < 5.00 | < 5.00 | < 5.00 | – | –
15 | CC1(C)OC(=O)C=C[C@]2(C)[C@H]3CC[C@@]4(C)[C@H](C5=CC(=O)NC5=O)C[C@H]5O[C@]54[C@]3(C)C(=O)C[C@@H]12 | < 5.00 | < 5.00 | < 5.00 | < 5.00 | < 5.00 | 4.55 | > 100
16 | C[C@]12[C@H](C[C@@H](O)[C@]3(C)OC(=O)[C@H](O)[C@]13O)O[C@@H]1C[C@@]3(C)[C@H](c4ccoc4)C[C@H]4O[C@]43[C@](C)(O)[C@H]12 | 6.22 | 6.05 | 6.05 | < 5.00 | < 5.00 | – | –
17 | CO[C@@H]1C=C([C@@H]2C[C@H]3O[C@@]34[C@@]2(C)C[C@H]2O[C@H]3C[C@H](O)[C@]5(C)OC(=O)[C@H](O)[C@]5(O)[C@@]3(C)[C@@H]2[C@@]4(C)O)C(=O)O1 | < 5.00 | < 5.00 | < 5.00 | < 5.00 | < 5.00 | – | –
18 | CC(=O)O[C@@H]1C[C@@H]2O[C@@H]3C[C@@]4(C)[C@H](c5ccoc5)C[C@H]5O[C@]54[C@](C)(O)[C@H]3[C@]2(C)[C@@]2(O)[C@@H](O)C(=O)O[C@@]12C | < 5.00 | 5.62 | 5.43 | < 5.00 | < 5.00 | – | –
19 | CC1(C)OC(=O)C=C[C@]2(C)[C@H]3C[C@H](O)[C@@]4(C)[C@H](c5ccoc5)C[C@H]5O[C@]54[C@]3(C)OC(=O)C[C@@H]12 | < 5.00 | < 5.00 | < 5.00 | < 5.00 | < 5.00 | – | –
20 | CO[C@@H]1C=C([C@@H]2C[C@H]3O[C@@]34[C@@]2(C)C[C@H]2O[C@@]3(O)C=C[C@]5(C)OC(=O)[C@H](O)[C@]5(O)[C@@]3(C)[C@@H]2[C@@]4(C)O)C(=O)O1 | < 5.00 | < 5.00 | < 5.00 | < 5.00 | < 5.00 | – | –
21 | CC(=O)O[C@H]1[C@@H](OC(C)=O)[C@]2(C)[C@H]([C@H](O)C[C@@]3(C)[C@H](c4ccoc4)C[C@H]4O[C@@]423)[C@@]2(C)C=CC(=O)OC(C)(C)[C@H]12 | < 5.00 | < 5.00 | < 5.00 | < 5.00 | < 5.00 | – | –
22 | CC1(C)OC(=O)C=C[C@]2(C)[C@H]3CC[C@@]4(C)[C@H](C5=CCNC5=O)C[C@H]5O[C@]54[C@]3(C)OC(=O)C[C@@H]12 | < 5.00 | < 5.00 | < 5.00 | < 5.00 | < 5.00 | – | –
23 | CC1(C)C(=O)C=C[C@]2(C)C3=CC[C@@]4(C)[C@H](C5=CCNC5=O)C[C@H]5O[C@]54[C@]3(C)C(=O)C[C@@H]12 | < 5.00 | < 5.00 | < 5.00 | < 5.00 | < 5.00 | – | –
